Laboratory results published in article PMC9516332 (Frontiers in Oncology, 2022).
Like-named read-outs stand apart in the source and are kept apart here.

System: 134 cancer cell lines
Assay: Cell viability assay (ATPlite, 72 hours), IC50 on cancer cell line panel

In the case of CCN1CCN(c2ccc(Nc3cc(N(C)C(=O)Nc4c(Cl)c(OC)cc(OC)c4Cl)ncn3)cc2)CC1 [infigratinib], the IC50 (HEC-6, read-out: IC50 in cell proliferation assay, HEC-6 cell line (EGFR p.A289V)) is reported as > 3.16 µM, the IC50 (Homo sapiens, 769-P, read-out: IC50 in cell proliferation assay, cell line 769-P) is reported as > 3.16 µM and the IC50 (Homo sapiens, 786-0, read-out: IC50 in cell proliferation assay, cell line 786-O) is reported as > 3.16 µM. The IC50 (Homo sapiens, A 172, read-out: IC50 in cell proliferation assay, cell line A-172) was 0.041 µM, the IC50 (Homo sapiens, A204, read-out: IC50 in cell proliferation assay, cell line A-204) was 0.063 µM and the IC50 (Homo sapiens, A498, read-out: IC50 in cell proliferation assay, cell line A-498) was 2.97 µM. The IC50 (Homo sapiens, A549, read-out: IC50 in cell proliferation assay, cell line A-549) was > 3.16 µM, the IC50 (Homo sapiens, A704, read-out: IC50 in cell proliferation assay, cell line A-704) was > 3.16 µM and the IC50 (Homo sapiens, A-375, read-out: IC50 in cell proliferation assay, cell line A-375 (BRAF p.V600E)) was > 3.16 µM. The IC50 (Homo sapiens, A-427, read-out: IC50 in cell proliferation assay, cell line A-427) was 1.79 µM, the IC50 (Homo sapiens, ACHN, read-out: IC50 in cell proliferation assay, cell line ACHN) was 2.75 µM and the IC50 (Homo sapiens, AN3-CA, read-out: IC50 in cell proliferation assay, cell line AN3-CA (FGFR2 p.N549K)) was 0.203 µM. The IC50 (Homo sapiens, ASPC1, read-out: IC50 in cell proliferation assay, cell line AsPC-1) was > 3.16 µM, the IC50 (Homo sapiens, AU565, read-out: IC50 in cell proliferation assay, cell line AU565 (ERBB2 amplification)) was > 3.16 µM and the IC50 (Homo sapiens, BT-20, read-out: IC50 in cell proliferation assay, cell line BT-20) was > 3.16 µM. The IC50 (Homo sapiens, BT-474, read-out: IC50 in cell proliferation assay, cell line BT-474 (ERBB2 amplification)) was > 3.16 µM, the IC50 (Homo sapiens, BT-549, read-out: IC50 in cell proliferation assay, cell line BT-549) was > 3.16 µM and the IC50 (Homo sapiens, BXPC-3, read-out: IC50 in cell proliferation assay, cell line BxPC-3) was > 3.16 µM. The IC50 (Homo sapiens, C-33-A, read-out: IC50 in cell proliferation assay, cell line C-33 A) was > 3.16 µM, the IC50 (Homo sapiens, CAL-27, read-out: IC50 in cell proliferation assay, cell line CAL-27) was > 3.16 µM and the IC50 (Homo sapiens, CCF-STTG1, read-out: IC50 in cell proliferation assay, cell line CCF-STTG1) was > 3.16 µM. The IC50 (Homo sapiens, CCRF-CEM, read-out: IC50 in cell proliferation assay, cell line CCRF-CEM) was > 3.16 µM, the IC50 (Homo sapiens, COLO 205, read-out: IC50 in cell proliferation assay, cell line COLO 205 (BRAF p.V600E)) was > 3.16 µM and the IC50 (Homo sapiens, COLO-829, read-out: IC50 in cell proliferation assay, cell line COLO 829 (BRAF p.V600E)) was > 3.16 µM. The IC50 (Homo sapiens, DLD-1, read-out: IC50 in cell proliferation assay, cell line DLD-1) was > 3.16 µM, the IC50 (Homo sapiens, DU-4475, read-out: IC50 in cell proliferation assay, cell line DU4475 (BRAF p.V600E)) was > 3.16 µM and the IC50 (Homo sapiens, Daoy, read-out: IC50 in cell proliferation assay, cell line Daoy) was > 3.16 µM. For the same compound, the IC50 (Homo sapiens, DoTc2-4510, read-out: IC50 in cell proliferation assay, cell line DoTc2 4510) was > 3.16 µM, the IC50 (Homo sapiens, FaDu, read-out: IC50 in cell proliferation assay, cell line FaDu) was > 3.16 µM and the IC50 (Homo sapiens, G-361, read-out: IC50 in cell proliferation assay, cell line G-361 (BRAF p.V600E)) was > 3.16 µM. The IC50 (Homo sapiens, HCC827, read-out: IC50 in cell proliferation assay, cell line HCC827 (EGFR exon19del)) was 5 µM, the IC50 (Homo sapiens, HCC4006, read-out: IC50 in cell proliferation assay, cell line HCC4006 (EGFR exon19del)) was 6.22 µM and the IC50 (Homo sapiens, HCT-15, read-out: IC50 in cell proliferation assay, cell line HCT 15) was > 3.16 µM. The IC50 (Homo sapiens, HCT-116, read-out: IC50 in cell proliferation assay, cell line HCT 116) was > 3.16 µM, the IC50 (Homo sapiens, HEC-1, read-out: IC50 in cell proliferation assay, HEC-1 cell line) was 3.04 µM and the IC50 (Homo sapiens, HEC-1B, read-out: IC50 in cell proliferation assay, HEC-1-B cell line (EGFR p.A864V)) was > 3.16 µM. The IC50 (Homo sapiens, HL-60, read-out: IC50 in cell proliferation assay, HL-60 cell line) was > 3.16 µM, the IC50 (Homo sapiens, HT, read-out: IC50 in cell proliferation assay, HT cell line) was > 3.16 µM and the IC50 (Homo sapiens, HT-1080, read-out: IC50 in cell proliferation assay, HT-1080 cell line) was 2.99 µM. The IC50 (Homo sapiens, Hs-578T, read-out: IC50 in cell proliferation assay, Hs 578T cell line) was > 3.16 µM, the IC50 (Homo sapiens, HuTu80, read-out: IC50 in cell proliferation assay, HuTu 80 cell line) was 0.039 µM and the IC50 (Homo sapiens, J82, read-out: IC50 in cell proliferation assay, J82 cell line) was > 3.16 µM. The IC50 (Homo sapiens, Jurkat E6.1, read-out: IC50 in cell proliferation assay, Jurkat E6.1 cell line) was > 3.16 µM, the IC50 (Homo sapiens, K562, read-out: IC50 in cell proliferation assay, K-562 cell line) was > 3.16 µM and the IC50 (Homo sapiens, KATO III, read-out: IC50 in cell proliferation assay, KATO III cell line (FGFR2 amplification)) was 0.008 µM. For the same compound, the IC50 (Homo sapiens, KG-1, read-out: IC50 in cell proliferation assay, KG-1 cell line (FGFR1OP2-FGFR1)) was 0.00229 µM, the IC50 (Homo sapiens, KLE, read-out: IC50 in cell proliferation assay, KLE cell line) was > 3.16 µM and the IC50 (Homo sapiens, KMS-11, read-out: IC50 in cell proliferation assay, KMS-11 cell line (FGFR3 p.Y373C)) was 0.026 µM. For the same compound, the IC50 (Homo sapiens, KU812, read-out: IC50 in cell proliferation assay, Ku812 cell line) was > 3.16 µM, the IC50 (Homo sapiens, Kasumi 1, read-out: IC50 in cell proliferation assay, Kasumi-1 cell line (KIT p.N822K)) was 3.42 µM and the IC50 (Homo sapiens, LC-2-ad, read-out: IC50 in cell proliferation assay, LC-2/ad cell line (CCDC6-RET)) was 3.45 µM. The IC50 (Homo sapiens, LNCaP-Clone-FGC, read-out: IC50 in cell proliferation assay, LNCaP clone FGC cell line) was > 3.16 µM, the IC50 (Homo sapiens, LS174T, read-out: IC50 in cell proliferation assay, LS174T cell line) was > 3.16 µM and the IC50 (Homo sapiens, LS-411N, read-out: IC50 in cell proliferation assay, LS411N cell line (BRAF p.V600E)) was > 3.16 µM. For the same compound, the IC50 (Homo sapiens, LoVo, read-out: IC50 in cell proliferation assay, LoVo cell line) was > 3.16 µM, the IC50 (Homo sapiens, MCF7, read-out: IC50 in cell proliferation assay, MCF-7 cell line) was > 3.16 µM and the IC50 (Homo sapiens, MDA-MB-231, read-out: IC50 in cell proliferation assay, MDA-MB-231 cell line) was > 3.16 µM. The IC50 (Homo sapiens, MDA-MB-453, read-out: IC50 in cell proliferation assay, MDA-MB-453 cell line) was 0.655 µM, the IC50 (Homo sapiens, MDA-MB-468, read-out: IC50 in cell proliferation assay, MDA-MB-468 cell line) was > 3.16 µM and the IC50 (Homo sapiens, MG-63, read-out: IC50 in cell proliferation assay, MG-63 cell line) was 0.189 µM. The IC50 (Homo sapiens, MIA PaCa-2, read-out: IC50 in cell proliferation assay, MIA PaCa-2 cell line) was > 3.16 µM, the IC50 (Homo sapiens, MKN-45, read-out: IC50 in cell proliferation assay, MKN45 cell line (MET amplification)) was 4.26 µM and the IC50 (Homo sapiens, MOLM-13, read-out: IC50 in cell proliferation assay, MOLM-13 cell line (FLT3 ITD)) was 3.99 µM. For the same compound, the IC50 (Homo sapiens, MOLT-4, read-out: IC50 in cell proliferation assay, MOLT-4 cell line) was > 3.16 µM and the IC50 (Homo sapiens, MV4-11, read-out: IC50 in cell proliferation assay, MV4-11 cell line (FLT3 ITD)) was 2.57 µM.
